Measured values taken from PMC8248323 (Clinical Pharmacology in Drug Development, 2021).
Marks after values point to notes of the source that are not given here.

Assay: Phase 1 DDI study 004 part B: midazolam
Settings: for effect of lemborexant coadministration on exposure: coadministration with lemborexant 10 mg; for AUC: human, plasma, Geometric LSM
[1] = with lemborexant / without lemborexant
[2] = coadministration of lemborexant with bupropion

For `Cc1ncc2n1-c1ccc(Cl)cc1C(c1ccccc1F)=NC2` [Midazolam], the “effect of lemborexant coadministration on exposure” value was “not affected”, the “effect of lemborexant coadministration on exposure” value (listed as midazolam) was “did not have an effect” and the AUC (AUC0‐inf, midazolam 2 mg + bupropion 75 mg + lemborexant 10 mg daily) was 24.1 ng·h/mL. It also gave an AUC (AUC0‐inf, midazolam 2 mg + bupropion 75 mg, without lemborexant) of 21.4 ng·h/mL, an AUC (AUC0‐t, midazolam 2 mg + bupropion 75 mg + lemborexant 10 mg daily (n = 28)) of 22.9 ng·h/mL and an AUC (AUC0‐t, midazolam 2 mg + bupropion 75 mg single dose, without lemborexant (n = 27)) of 20.2 ng·h/mL. The “AUC0‐inf, Geometric Mean Ratio (90%CI)” value [1] was 1.130 (1.023–1.247), the “AUC0‐t, Geometric Mean Ratio (90%CI)” value [1] was 1.133 (1.025–1.253) and the “Cmax, Geometric Mean Ratio (90%CI)” value [1] was 1.126 (1.026–1.236).
In the case of `C[C@@H]1NC(C)(C)CO[C@@]1(O)c1cccc(Cl)c1` [[S,S]‐hydroxylated bupropion], the “AUC0‐t metabolite/parent ratio” value (bupropion with lemborexant) is reported as 124%, the “AUC0‐t metabolite/parent ratio” value (bupropion without lemborexant) is reported as 88.7% and the “decrease in AUC0‐t” value [2] is reported as 24.5%. For the same compound, the “decrease in Cmax” value [2] was 17%, the “Cmax, Geometric LSM” value (midazolam 2 mg + bupropion 75 mg + lemborexant 10 mg daily) was 6.57 ^c ng/mL and the “AUC0‐t, Geometric LSM” value (midazolam 2 mg + bupropion 75 mg + lemborexant 10 mg daily (n = 28)) was 53.2 ^c ng·h/mL. For the same compound, the “AUC0‐t, Geometric LSM” value (midazolam 2 mg + bupropion 75 mg single dose, without lemborexant (n = 27)) was 70.5 ng·h/mL, the “Cmax, Geometric LSM” value (midazolam 2 mg + bupropion 75 mg, without lemborexant) was 7.93 ng/mL and the “AUC0‐t, Geometric Mean Ratio (90%CI)” value [1] was 0.755 (0.661–0.862). The “Cmax, Geometric Mean Ratio (90%CI)” value [1] was 0.829 (0.759–0.905).
